In patent US20130267594A1, “PROLYL HYDROXYLASE INHIBITORS AS RADIATION MITIGATORS AND RADIATION PROTECTORS” (priority 2010, published 2013):

Key:
[1] = system: MEFs expressing shRNA targeting Hif1α; assay: Clonogenic cell survival assay after ionizing radiation, MEFs with Hif1α silenced; assay type: cell-based, mouse; settings: DMOG 1 mM, FIG. 11A
[2] = system: MEF cells; assay: Clonogenic cell survival assay after ionizing radiation, MEFs; assay type: cell-based, mouse; set-up: cell survival after exposure to IR (clonogenic): dose or concentration left out as unconfirmed
[3] = system: Hif1α; assay type: cell-based
[4] = biological target: T1, KDM4D (Homo sapiens, UniProt Q6B0I6); assay: KDM4D demethylation of H3K9me3 in transfected cells, immunofluorescent staining (FIG. 2); assay type: cell-based
T1 construct: expressed in transfected cells
T1 sequence (Q6B0I6 1-523): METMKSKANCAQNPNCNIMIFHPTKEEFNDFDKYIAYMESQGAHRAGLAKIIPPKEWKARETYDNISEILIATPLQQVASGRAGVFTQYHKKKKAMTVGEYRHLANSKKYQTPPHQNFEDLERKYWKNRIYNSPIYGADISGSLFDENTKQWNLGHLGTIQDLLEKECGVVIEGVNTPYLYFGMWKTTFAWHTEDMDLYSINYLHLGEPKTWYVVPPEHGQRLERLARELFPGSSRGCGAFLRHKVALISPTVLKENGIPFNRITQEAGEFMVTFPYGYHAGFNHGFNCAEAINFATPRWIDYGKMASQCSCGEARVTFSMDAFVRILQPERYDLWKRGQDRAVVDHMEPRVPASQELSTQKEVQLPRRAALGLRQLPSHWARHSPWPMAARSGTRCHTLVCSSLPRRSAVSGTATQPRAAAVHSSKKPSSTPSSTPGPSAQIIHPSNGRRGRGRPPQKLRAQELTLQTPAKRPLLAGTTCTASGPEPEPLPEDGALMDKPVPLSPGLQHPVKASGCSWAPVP
Procedure: HeLa cells were transiently transfected with either vector or KDM4D, followed by incubation with either solvent (PBS, control) or DMOG (100 μM) and then visualized by fluorescent microscopy.
Immunofluorescence: Cells (on cover slides) were fixed in phosphate-buffered saline (PBS) containing 2% paraformaldehyde. Cells were permeabilized in 0.2% Triton X-100 in PBS for 5mins, and then blocked in fetal bovine serum for 20 min, Primary antibodies were prepared in 10% fetal bovine serum supplemented with 0.2% saponin. After a 1 h incubation with primary antibody, cells were washed three times with 0.2% Tween-20 and incubated for 1 h in secondary antibody (conjugated to either Texas Red or FITC; Santa Cruz Biotechnology, CA). Slides were mounted with Fluoromount-G (Southern Biotech, AL). […]
KDMs utilize an Fe-oxo intermediate to form an unstable hydroxy-methyl intermediate, which spontaneously releases formaldehyde, leading to removal of a single methyl group. […] In FIG. 2B, Murine Embryonic Fibroblasts (MEFs) were transfected with empty vector or KDM4D, which specifically demethylates H3K9me3, and the levels of chromatin associated H3K9me3 measured by immunofluorescent staining using an anti-H3K9me3 antibody. In untreated cells, high levels of H3K9me3 were detected, and transient expression of the H3K9me3 demethylase KDM4D essentially demethylated the entire nuclear H3K9me3 signal. […]

[5] = system: Suv39h1/2−/− cells; assay: Clonogenic cell survival assay after ionizing radiation, Suv39h1/Suv39h2 double knockout MEFs; assay type: cell-based, mouse
[6] = Toxicity of DMOG alone in mice; assay type: in vivo, mouse; settings: DMOG 100 mg/kg ip
Procedure: (§1) Mice: This study was carried out in strict accordance with the recommendations in the Guide for the Care and Use of Laboratory Animals of the National Institutes of Health. The protocol was reviewed and approved by the Dana-Farber Cancer Institute's Animal Care and Use Committee (Protocol number 06-029). All efforts were made to minimize suffering. Male Balb/c mice were purchased from Taconic (NY, USA) and C57BL/6J mice were purchased from The Jackson Laboratory (ME, USA). For total body irradiation (TBI), mice were irradiated at the dose rate of 110 cGy/min using a ^137Cs source (Gammacell® 40Exactor, Best Theratronics, Ottawa, Canada). DMOG (dissolved in saline) or saline was administered IP before and after TBI. The mice were given normal water that had undergone reverse osmosis and powdered food (Purina Pico Lab Chow) after TBI. The animals were closely inspected after TBI for ill-health and the moribund animals were sacrificed according to the guidelines in our approved ACUC protocol. The Kaplan-Meier survival curves were plotted for saline-treated and DMOG-treated cohorts. The statistical analysis of the Kaplan-Meier survival curves was performed with Graph Pad Prism Version 5 using Mantel Log-rank test.
The preliminary observation on the radiation mitigating effects of DMOG in primary fibroblast cell lines prompted the inventors to initiate testing of DMOG in a murine model. […]

[7] = system: CHD4; assay type: cell-based; settings: MCF7 cells; CoCl2 200 μM time course, FIG. 8F; DMOG only stated
[8] = system: CHD4; assay type: cell-based; settings: MCF-7 cells; CoCl2 200 μM 8 hr, FIG. 8D; DMOG only stated
[9] = system: Suv39h1; assay type: cell-based
[10] = system: C57BL/6J and Balb/c mice after TBI; assay: Murine total body irradiation (TBI) model, 30 day survival; assay type: in vivo, mouse; settings: 8 Gy TBI, DMOG 100 mg/kg ip 4 hrs before, 12 hrs and 36 hrs after TBI, 30 days
Procedure: Mice (10 per group) were irradiated (8 Gy TBI) and survival monitored over 30 days. DMOG (100 mg/kg) or saline was administered ip 4 hrs before TBI, and 12 hrs and 36 hrs after TBI.
as §1

Compound: COC(=O)CNC(=O)C(=O)OC [DMOG, dimethyloxalylglycine]
- radioresistance (clonogenic survival) when Hif1α was silenced [1]: this effect was lost
- cell survival after exposure to IR (clonogenic) ([2]; MEF cells incubated with DMOG then irradiated, FIG. 3): increased cell survival
- radioresistance (clonogenic survival) ([2]; MEFs expressing a non-specific shRNA, DMOG 1 mM, FIG. 11A): increased radioresistance
- radiosensitivity (clonogenic survival) ([2]; MEFs, DMOG 1 mM, 1 hr before IR to 24 hr after, FIG. 7C): significant decrease in radiosensitivity
- protection when added after irradiation (radiation mitigation, clonogenic survival) ([2]; MEFs, DMOG 48-72 hours post-irradiation, FIG. 5): significant protection
- radioresistance (clonogenic survival) ([2]; Suv39h1/h2+/+ cells, FIG. 4B): small, but significant increase in radioresistance
- accumulation of Hif1α [3]: significant accumulation of Hif1α
- accumulation of Hif1α protein in combination with IR, versus agent alone [3]: much larger accumulation of Hif1α protein
- ability of KDM4D to demethylate H3K9me3 ([4]; cells expressing KDM4D, DMOG 100 μM, anti-H3K9me3 staining): inhibited the ability of KDM4D to demethylate H3K9me3
- level of expression of the KDM4D enzyme ([4]; control experiments to FIG. 2): did not alter the level of expression of the KDM4D enzyme
- protective effect (clonogenic survival) in SuvDKO MEFs versus normal MEFs ([5]; MEF-SuvDKO, DMOG 1 mM, FIG. 11C): significantly reduced
- radioprotective effect (clonogenic survival) ([5]; Suv39h1/h2−/− cells compared to +/+, FIG. 4B): much larger radioprotective effects
- toxicity of DMOG alone in mice ([6]; no irradiation): does not cause any toxicity
- mice surviving at 30 days, DMOG alone ([6]; no irradiation (data not shown)): 100%
- CHD4 protein levels [7]: increased
- CHD4 mRNA levels [8]: increased
- DMOG dependent induction of Suv39h1 in cells lacking Hif1α [9]: abolished
- expression of the Suv39h1 methyltransferase [9]: increased expression of the Suv39h1 methyltransferase
- survival after TBI ([10]; Balb/c mice, FIG. 6B): significantly improved the survival
- survival after TBI ([10]; C57BL/6J mice, FIG. 6A): significantly improved the survival
